“And” between values parts separate entries of the source, which are not always exact repeats. Identical values can stand only once.
Legend:
Assay type in all cases: functional
[1] = Minimum inhibitory concentration against Candida albicans
Bacillus subtilis = experiment: Minimum inhibitory concentration against Bacillus subtilis
Staphylococcus aureus = experiment: Minimum inhibitory concentration against Staphylococcus aureus

Row | -Log MIC (Bacillus subtilis) [ug ml-1] | -Log MIC (Staphylococcus aureus) [ug ml-1] | Compound | -Log MIC [1]
1 | – | – | Clc1ccccc1C(c1ccccc1)(c1ccccc1)n1ccnc1 | 3.14 µg ml-1 and 3.24 µg ml-1
2 | 4.606 | 3.097 | CC1(C)S[C@@H]2[C@H](NC(=O)[C@H](N)c3ccccc3)C(=O)N2[C@H]1C(=O)O [AMPICILLIN] | –

From ChEMBL document CHEMBL1141981, “Studies on synthesis and evaluation of quantitative structure-activity relationship of 5-[(3'-chloro-4',4'-disubstituted-2-oxoazetidinyl)(N-nitro)amino]-6-hydroxy-3-alkyl/aryl[1,3]azaphospholo[1,5-a]pyridin-1-yl-phosphorus dichlorides” (2005)
